According to publication PMC4216756 (Clinical cancer research : an official journal of the …, 2014):
Where “and” joins values, the source holds several entries; their conditions need not be identical. Equal values may be shown once. Read-outs that look alike come from different tables or passages of the source.

Tests used:
[1] = test system: patients with advanced thymic epithelial tumors; test: Phase I dose escalation; assay type: in vivo, human
Thymoma = test: Phase I/II efficacy; assay type: in vivo, human; conditions: belinostat + PAC
Thymic carcinoma = test: Phase I/II efficacy; assay type: in vivo, human; conditions: belinostat + PAC
thymic epithelial tumors = test: Phase I/II efficacy; assay type: in vivo, human
[2] = test system: patients with advanced thymic epithelial tumors; test: Safety: treatment-related adverse events; assay type: in vivo, human
[3] = Plasma pharmacokinetics of belinostat, 48-hr CIVI, cycle 1; assay type: in vivo, human; conditions: for clearance / half-life: human, plasma, intravenous; for half-life: cycle 1, n=25
[4] = test system: protein acetylation, tubulin acetylation, p21 in PBMC; test: Protein/tubulin acetylation and p21 in PBMC by multiparametric flow cytometry; assay type: in vivo, human
[5] = test system: Regulatory T cells and CD8+ T cells; test: T cell subsets and immune markers in PBMC by flow cytometry; assay type: in vivo, human
[6] = test system: γ-H2AX expression on CD3+ and CD14+ cells; test: DNA damage: γ-H2AX expression in PBMC; assay type: in vivo, human
TETs = conditions: single-agent belinostat, cited from earlier work
[7] = cited from earlier work
[8] = 23 evaluable patients treated at dose level 1
[9] = belinostat + PAC, Total, 25 evaluable patients
[10] = Dose level 1 (n=24), belinostat 1000 mg/m^2 + PAC
[11] = Dose level 2 (n=2), belinostat 2000 mg/m^2 + PAC
[12] = following belinostat plus chemotherapy, p<0.0001

O=C(/C=C/c1cccc(S(=O)(=O)Nc2ccccc2)c1)NO [belinostat, N-hydroxy-3-(phenylsulphamoylphenyl) acrylamide]
Dose-limiting toxicities ([1]; 2000 mg/m^2 belinostat (dose level 2) with PAC, in two patients): grade 3 nausea and diarrhea and grade 4 neutropenia and thrombocytopenia
Maximum-tolerated dose (MTD) of belinostat ([1]; CIVI over 48 hours with PAC, 3-week cycles): 1000 mg/m^2
Median DOR (Thymoma): not reached
Median overall survival (Thymoma): Not reached
Median progression-free survival (Thymoma): Not reached
Complete response (Thymoma; 11 evaluable patients): 1 (9) n (%)
Disease control rate (95% confidence interval) (Thymoma; 11 evaluable patients): 100 (71.5–100.0) %
Objective Response Rate (95% confidence interval) (Thymoma; 11 evaluable patients): 64 (30.8–89.1) %
Partial Response (Thymoma; 11 evaluable patients): 6 (55) n (%)
Progressive Disease (Thymoma; 11 evaluable patients): 0 n (%)
Stable Disease (Thymoma; 11 evaluable patients): 4 (36) n (%)
Median overall survival (Thymic carcinoma): 21.4 months
Median progression-free survival (Thymic carcinoma): 7.2 months
Complete response (Thymic carcinoma; 14 evaluable patients): 0 n (%)
Disease control rate (95% confidence interval) (Thymic carcinoma; 14 evaluable patients): 93 (66.1–99.8) %
Objective Response Rate (95% confidence interval) (Thymic carcinoma; 14 evaluable patients): 21 (4.7–50.8) %
Partial Response (Thymic carcinoma; 14 evaluable patients): 3 (21) n (%)
Progressive Disease (Thymic carcinoma; 14 evaluable patients): 1 (7) n (%)
Patients who underwent R0 or R1 resection (thymic epithelial tumors; 9 of 23 assessed after at least 4 cycles of belinostat + PAC): 39%
Patients with PD (thymic epithelial tumors; [8]): 4%
Patients with PRs (thymic epithelial tumors; [8]): 30%
Patients with CR (thymic epithelial tumors; 23 evaluable patients treated at dose level 1 (belinostat 1000 mg/m^2 + PAC)): 4%
Patients with no evidence of disease at the time of reporting (thymic epithelial tumors; Six of 23, after multimodality therapy): 26%
Median progression-free survival (thymic epithelial tumors; belinostat + PAC, Total): 9 months and 9.0 months
Complete response (thymic epithelial tumors; [9]): 1 (4) n (%)
Disease control rate (95% confidence interval) (thymic epithelial tumors; [9]): 96 (79.7 –99.9) %
Objective Response Rate (95% confidence interval) (thymic epithelial tumors; [9]): 40 (21.1 –61.3) %
Partial Response (thymic epithelial tumors; [9]): 9 (36) n (%)
Progressive Disease (thymic epithelial tumors; [9]): 1 (4) n (%)
Stable Disease (thymic epithelial tumors; [9]): 14 (56) n (%)
Median overall survival (thymic epithelial tumors; belinostat + PAC, Total, median potential follow up 20.5 months): 28.5 months
Alanine aminotransferase increased, Grade 3/4 (%) ([2]; All dose levels (n= 26)): 4 (15) n (%)
Aspartate aminotransferase increased, Grade 3/4 (%) ([2]; All dose levels (n= 26)): 6 (23) n (%)
Atrial fibrillation, Grade 3/4 (%) ([2]; All dose levels (n= 26)): 1 (4) n (%)
Ejection fraction decreased, Grade 3/4 (%) ([2]; All dose levels (n= 26)): 1(4) n (%)
Electrocardiogram QT corrected interval prolonged, Grade 3/4 (%) ([2]; All dose levels (n= 26)): 1(4) n (%)
Enterocolitis infectious, Grade 3/4 (%) ([2]; All dose levels (n= 26)): 2(8) n (%)
Febrile neutropenia, Grade 3/4 (%) ([2]; All dose levels (n= 26)): 3(12) n (%)
Hearing impaired, Grade 3/4 (%) ([2]; All dose levels (n= 26)): 1(4) n (%)
Hypermagnesemia, Grade 3/4 (%) ([2]; All dose levels (n= 26)): 3 (12) n (%)
Hypoalbuminemia, Grade 3/4 (%) ([2]; All dose levels (n= 26)): 2(8) n (%)
Hypocalcemia, Grade 3/4 (%) ([2]; All dose levels (n= 26)): 2(8) n (%)
Hypokalemia, Grade 3/4 (%) ([2]; All dose levels (n= 26)): 4(15) n (%)
Hypomagnesemia, Grade 3/4 (%) ([2]; All dose levels (n= 26)): 1(4) n (%)
Hyponatremia, Grade 3/4 (%) ([2]; All dose levels (n= 26)): 1(4) n (%)
Hypophosphatemia, Grade 3/4 (%) ([2]; All dose levels (n= 26)): 6(23) n (%)
Limb edema, Grade 3/4 (%) ([2]; All dose levels (n= 26)): 1 (4) n (%)
Lung infection, Grade 3/4 (%) ([2]; All dose levels (n= 26)): 2(8) n (%)
Lymphocyte count decreased, Grade 3/4 (%) ([2]; All dose levels (n= 26)): 26 (100) n (%)
Neutrophil count decreased, Grade 3/4 (%) ([2]; All dose levels (n= 26)): 21 (81) n (%)
Non-cardiac chest pain, Grade 3/4 (%) ([2]; All dose levels (n= 26)): 1(4) n (%)
Pain in extremity, Grade 3/4 (%) ([2]; All dose levels (n= 26)): 1(4) n (%)
Platelet count decreased, Grade 3/4 (%) ([2]; All dose levels (n= 26)): 12 (46) n (%)
Thromboembolic event, Grade 3/4 (%) ([2]; All dose levels (n= 26)): 3(12) n (%)
Tumor lysis syndrome, Grade 3/4 (%) ([2]; All dose levels (n= 26)): 1(4) n (%)
Urinary tract infection, Grade 3/4 (%) ([2]; All dose levels (n= 26)): 1(4) n (%)
White blood cell decreased, Grade 3/4 (%) ([2]; All dose levels (n= 26)): 24 (92) n (%)
Alanine aminotransferase increased, Grade 3/4 [2, 10]: 3
Aspartate aminotransferase increased, Grade 3/4 [2, 10]: 4
Ejection fraction decreased, Grade 3/4 [2, 10]: 1
Electrocardiogram QT corrected interval prolonged, Grade 3/4 [2, 10]: 1
Enterocolitis infectious, Grade 3/4 [2, 10]: 1
Febrile neutropenia, Grade 3/4 [2, 10]: 3
Hearing impaired, Grade 3/4 [2, 10]: 1
Hypermagnesemia, Grade 3/4 [2, 10]: 3
Hypoalbuminemia, Grade 3/4 [2, 10]: 1
Hypomagnesemia, Grade 3/4 [2, 10]: 1
Hypophosphatemia, Grade 3/4 [2, 10]: 4
Lung infection, Grade 3/4 [2, 10]: 2
Lymphocyte count decreased, Grade 3/4 [2, 10]: 24
Neutrophil count decreased, Grade 3/4 [2, 10]: 19
Non-cardiac chest pain, Grade 3/4 [2, 10]: 1
Pain in extremity, Grade 3/4 [2, 10]: 1
Platelet count decreased, Grade 3/4 [2, 10]: 10
Thromboembolic event, Grade 3/4 [2, 10]: 3
Urinary tract infection, Grade 3/4 [2, 10]: 1
White blood cell decreased, Grade 3/4 [2, 10]: 22
Alanine aminotransferase increased, Grade 3/4 [2, 11]: 1
Aspartate aminotransferase increased, Grade 3/4 [2, 11]: 2
Atrial fibrillation, Grade 3/4 [2, 11]: 1
Enterocolitis infectious, Grade 3/4 [2, 11]: 1
Hypoalbuminemia, Grade 3/4 [2, 11]: 1
Hypophosphatemia, Grade 3/4 [2, 11]: 2
Lymphocyte count decreased, Grade 3/4 [2, 11]: 2
Neutrophil count decreased, Grade 3/4 [2, 11]: 2
Platelet count decreased, Grade 3/4 [2, 11]: 2
Tumor lysis syndrome, Grade 3/4 [2, 11]: 1
White blood cell decreased, Grade 3/4 [2, 11]: 2
Patients requiring dose reductions of PAC due to toxicities ([2]; belinostat + PAC, n=26): 35%
Patients who discontinued treatment due to adverse events ([2]; belinostat + PAC, n=26): Four
Patients with QTc prolongation ([2]; belinostat + PAC, n=26, any grade, one grade 3 event): 35%
Plasma concentration of belinostat during the 48-hour infusion ([3]; 250 mg/m^2 per 12-h infusion, with PAC): around 1 μM
clearance ([3]; Clearance, range, 48-hr CIVI, cycle 1, all patients): 683 to 13200 mL/min
clearance ([3]; Clearance, range, after excluding outlier patient): 683 to 3350 mL/min
half-life ([3]; Half-life, range, 48-hr CIVI): 12 to 54.6 min
clearance ([3]; Mean clearance, 48-hr CIVI, cycle 1, all patients): 2220 mL/min
half-life ([3]; Mean half-life, 48-hr CIVI): 28.2 min
clearance ([3]; Total systemic clearance, the only patient with high serum creatinine (1.43 mg/dL)): 1770 mL/min
Differences in CMAX, AUCINF, clearance and half-life between genders and races ([3]; in vivo): no statistically significant differences
Patients with increase in total protein hyperacetylation of CD3+ cells ([4]; 21 of 23 patients, after belinostat): 91%
Increase in total protein hyperacetylation of CD3+ cells, median ([4]; after belinostat): 2.5 fold
p21 expression in CD14+ cells ([4]; after belinostat alone, p=0.019): increased
PBMC acetylated tubulin ([4]; after belinostat, p<0.0001): increased significantly
Total protein hyperacetylation of CD3+ cells ([4]; after belinostat, p<0.0001): increased significantly
Total protein hyperacetylation of CD14+ cells ([4]; after belinostat, p= 0.026): increased only marginally
p21 expression in CD14+ cells [4, 12]: increased
PBMC acetylated tubulin ([4]; following belinostat plus chemotherapy, p=0.0001): increased significantly
Fraction of CTLA4-expressing Tregs ([5]; after belinostat alone, p=0.0078): increased significantly
Fraction of CTLA4-expressing Tregs ([5]; after belinostat plus chemotherapy, p<0.0001): increased significantly
TIM3+ CD8+T cells ([5]; following belinostat alone vs baseline, p < 0.0001): decreased significantly
PD-1+ CD8+ T cells ([5]; following belinostat alone vs baseline, p=0.01): decreased significantly
Number of Tregs ([5]; following belinostat alone, p=0.0009): decreased significantly
Number of Tregs [5, 12]: decreased significantly
TIM3+ CD8+T cells ([5]; following belinostat with chemotherapy vs baseline, p <0.0001): decreased significantly
Median progression-free survival ([5]; patients with greater decline in Tregs post-combination therapy): not reached
Median progression-free survival ([5]; patients with greater decline in post-combination therapy TIM3+ CD8+T cells): not reached
Median OS ([5]; patients with higher pre-treatment CTLA4-expressing Tregs): 18.8 months
Median progression-free survival ([5]; patients with lesser decreases in TIM3+ CD8+T cells): 7.8 months
Median OS ([5]; patients with lower pre-treatment CTLA4-expressing Tregs): 37.5 months
γ-H2AX expression on CD3+ cells ([6]; after belinostat alone, p=0.033): increased
γ-H2AX expression on CD14+ cells ([6]; after belinostat alone, p=0.41): did not increase significantly
γ-H2AX expression on CD14+ cells ([6]; after belinostat plus chemotherapy, p=0.012): increased
γ-H2AX expression on CD3+ cells ([6]; following belinostat plus chemotherapy, p=0.01): increased
Patients with stable disease (TETs; of 41 patients): 25 patients
Median overall survival (TETs; overall population): 19.1 months
Median time to progression (TETs; overall population): 5.8 months
Responses in patients with thymic carcinoma (TETs): no responses
Elimination half-life ([7]; administered IV with paclitaxel and carboplatin): 1.7 h
Elimination half-life ([7]; administration over 30 minutes): 0.52 to 0.54 h
Elimination half-life ([7]; orally alone): 1.9 h
